Assay results reported in PMC2799458, “Diastereomers of the Brominated Flame Retardant 1,2-Dibromo-4-(1,2 dibromoethyl)cyclohexane Induce Androgen Receptor Activation in the HepG2 Hepatocellular Carcinoma Cell Line and the LNCaP Prostate Cancer Cell Line” (Environmental Health Perspectives, 2009).
Where two headings read alike, the source gives them in different places. Marks after values point to notes of the source that are not given here.

What was measured:
ER [1] = conditions: 17β-estradiol set to 100%, cited from earlier work
ER [2] = conditions: 17β-estradiol set to 100%, cited from earlier work; remark: listed apart in the source
AR [3] = conditions: DHT set to 100%, cited from earlier work
HepG2 cells = conditions: 21 hr after addition, ref Simon and Mueller 2006; cited from earlier work
[4] = test system: L5178Y tk^+/tk^− mouse lymphoma-cell; design: method as in McGregor et al. 1991; conditions: ref McGregor et al. 1991; cited from earlier work
AR [5] = test system: AR; design: method as in Viswanath et al. (2008); conditions: DHT set to 100%; ref Viswanath et al. (2008); cited from earlier work
AhR [6] = conditions: TCDD set to 100%, cited from earlier work
[7] = test system: human androgen receptor (hAR); design: method as in Araki et al. 2005; conditions: at high concentrations; ref Araki et al. 2005; cited from earlier work
AhR [8] = test: Relative binding affinity for AhR (Table 4); design: species or system human; conditions: TCDD as reference ligand set to 100%
Text: Table 4 RBA of ligands for human receptors. | column: AhR / RBA

AhR [9] = test system: AhR; design: method as in Westerink et al. (2008); conditions: ref Westerink et al. (2008); cited from earlier work
AhR [10] = test: Relative activation factor for AhR (Table 4); type: cell-based, human; conditions: TCDD as reference ligand set to 100%
Text: Table 4 RBA of ligands for human receptors. | column: AhR / RAF

AhR [11] = test system: AhR; design: method as in Bonefeld-Jørgensen et al. (2007); conditions: ref Bonefeld-Jørgensen et al. (2007); cited from earlier work
ER [12] = test system: ER; design: method as in Blair et al. (2000); conditions: natural ligand; ref Blair et al. (2000); cited from earlier work
ER [13] = test system: ER; design: method as in Pillon et al. (2005); conditions: natural ligand; ref Pillon et al. (2005); cited from earlier work
AR [14] = conditions: read-out: EC50 AR; natural ligand; ref Xu et al. (2005); cited from earlier work
AR [15] = conditions: read-out: IC50 AR; natural ligand; ref Cabeza et al. (2004); cited from earlier work
hAR = molecular target: T1, hAR (Homo sapiens, UniProt P10275); test: AR activation, slp-ARE-Luc reporter in HepG2 cells transfected with pCMVhAR; type: cell-based
T1 construct: expressed in transfected cells; host or cells: HepG2
T1 sequence (P10275 1-920): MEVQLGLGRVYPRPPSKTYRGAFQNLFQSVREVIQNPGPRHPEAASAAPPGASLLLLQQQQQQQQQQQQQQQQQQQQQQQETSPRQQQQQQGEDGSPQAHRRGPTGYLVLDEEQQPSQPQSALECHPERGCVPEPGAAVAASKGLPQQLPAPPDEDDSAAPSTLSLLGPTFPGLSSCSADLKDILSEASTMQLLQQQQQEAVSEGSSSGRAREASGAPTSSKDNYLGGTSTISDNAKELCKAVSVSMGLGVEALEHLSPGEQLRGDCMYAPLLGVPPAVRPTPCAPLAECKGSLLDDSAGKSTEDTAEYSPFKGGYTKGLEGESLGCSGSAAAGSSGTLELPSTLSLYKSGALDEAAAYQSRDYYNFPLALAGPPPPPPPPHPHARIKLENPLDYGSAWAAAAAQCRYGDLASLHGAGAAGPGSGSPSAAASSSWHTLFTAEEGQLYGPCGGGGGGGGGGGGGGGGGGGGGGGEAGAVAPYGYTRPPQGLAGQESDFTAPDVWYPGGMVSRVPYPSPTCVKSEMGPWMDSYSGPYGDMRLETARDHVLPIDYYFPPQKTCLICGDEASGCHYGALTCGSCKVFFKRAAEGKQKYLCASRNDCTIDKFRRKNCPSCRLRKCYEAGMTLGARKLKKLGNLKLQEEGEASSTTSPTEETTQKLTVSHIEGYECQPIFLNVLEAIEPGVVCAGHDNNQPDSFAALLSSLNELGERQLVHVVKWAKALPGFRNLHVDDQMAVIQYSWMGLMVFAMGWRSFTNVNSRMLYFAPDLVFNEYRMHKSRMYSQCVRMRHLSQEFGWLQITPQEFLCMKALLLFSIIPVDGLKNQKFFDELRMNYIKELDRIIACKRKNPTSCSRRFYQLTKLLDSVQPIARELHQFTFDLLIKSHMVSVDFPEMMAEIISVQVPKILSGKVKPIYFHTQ

AR-LBD = molecular target: T2, AR-LBD (Rattus norvegicus, UniProt P15207); test: PolarScreen AR competition assay (polarization fluorometry); type: binding
T2 construct: purchased PanVera, Madison, WI, USA
T2 sequence (P15207 651-882 limits assumed): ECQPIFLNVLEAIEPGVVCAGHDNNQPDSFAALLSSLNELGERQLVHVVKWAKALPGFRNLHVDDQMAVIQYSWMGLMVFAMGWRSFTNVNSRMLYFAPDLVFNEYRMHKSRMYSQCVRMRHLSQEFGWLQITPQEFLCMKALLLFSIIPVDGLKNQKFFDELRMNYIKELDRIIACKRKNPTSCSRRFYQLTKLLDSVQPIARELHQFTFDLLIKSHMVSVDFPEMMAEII
Method: The final concentration of AR LBD was 50 nM. […] All analyses were performed in triplicate.

PR [16] = test system: PR; design: method as in Viswanath et al. (2008); conditions: natural ligand; ref Viswanath et al. (2008); cited from earlier work
PR [17] = test system: PR; design: method as in Lenasi and Breskvar (2004); conditions: natural ligand; ref Lenasi and Breskvar (2004); cited from earlier work
[18] = ref Bonefeld-Jørgensen et al. (2007)

## CC(C)(c1ccc(O)cc1)c1ccc(O)cc1 [Bisphenol A]
ER [1]; ref Blair et al. (2000)
  ER RBA: 0.0077 ^a %
ER [2]; [18]
  ER RAF: 0.0183 ^d %
AR [3]; ref Scippo et al. (2004)
  AR RBA: 0.0018 ^c %

## ClC1=C(Cl)C2(Cl)C3C4C=CC(C4)C3C1(Cl)C2(Cl)Cl (centres unmarked) [Aldrin]
ER [1]; ref Sonneveld et al. (2005)
  ER RBA: 0.0029 ^h %
AR [3]; ref Fang et al. (2003)
  AR RBA: 0.007 ^f %

## C[C@]12CC[C@H]3[C@@H](CCC4=CC(=O)CC[C@@]43C)[C@@H]1CC[C@@H]2O [Testosterone, testosterone]
HepG2 cells
  reduction of hormone by metabolism: 82%

## BrCC(Br)C1CCC(Br)C(Br)C1 (centres unmarked) [TBECH, 1,2-dibromo-4-(1,2 dibromoethyl)cyclohexane]
[4]
  mutagenicity: mutagenic

## Clc1ccc(C(c2ccccc2Cl)C(Cl)(Cl)Cl)cc1 (centres unmarked) [o,p′-DDT]
ER [1]; ref Blair et al. (2000)
  ER RBA: 0.0014 ^a %
ER [2]; ref Legler et al. (1999)
  ER RAF: 0.0009 ^e %
AR [3]; ref Fang et al. (2003)
  AR RBA: 0.0149 ^f %
AR [5]
  AR RAF: 0.0126 ^g %

## C=CC1(C)OC(=O)N(c2cc(Cl)cc(Cl)c2)C1=O (centres unmarked) [Vinclozolin]
ER [1]; ref Blair et al. (2000)
  ER RBA: < 0.0009 ^a %
AR [3]; ref Fang et al. (2003)
  AR RBA: 0.0023 ^f %
AR [5]
  AR RAF: 0.0126 ^g %

## Nonylphenol
ER [1]; ref Blair et al. (2000)
  ER RBA: 0.037 ^a %
ER [2]; ref Pillon et al. (2005)
  ER RAF: 0.00016 ^b %
AR [3]; ref Scippo et al. (2004)
  AR RBA: 0.0523 ^c %
AhR [6]; [18]
  AhR RAF: 0.0003 ^d %

## CC(C)(C)c1ccc2c(c1)C(=O)c1ccccc1C2=O [2-tert-butylanthraquinone]
[7]
  agonism to hAR: weak agonists

## Clc1ccc(-c2ccc(Cl)c(Cl)c2)cc1Cl [PCB 77, 3,3′,4,4′-tetrachlorobiphenyl]
ER [1]; ref Blair et al. (2000)
  ER RBA: < 0.0003 ^a %
AhR [6]; ref Zeiger et al. (2001)
  AhR RAF: 0.025 ^i %

## Clc1cc2c(cc1Cl)Oc1cc(Cl)c(Cl)cc1O2 [TCDD, 2,3,7,8-tetrachlorodibenzo-p-dioxin, reference compound]
ER [1]; ref Viswanath et al. (2008)
  ER RBA: < 0.0002 ^g %
AhR [8]
  AhR RBA: 100%
ER [2]; ref Viswanath et al. (2008)
  ER RAF: 0.00012 ^g %
AR [3]; ref Viswanath et al. (2008)
  AR RBA: 0.0013 ^g %
AhR [9]
  EC50: 48.8 pM
AR [5]
  AR RAF: < 0.0013 ^g %
AhR [10]
  AhR RAF: 100%
AhR [11]
  IC50: 64 pM

## O=C1c2ccccc2-c2cccc3cccc1c23 [benzoanthrone]
[7]
  agonism to hAR: weak agonists

## ClC1=C(Cl)[C@]2(Cl)[C@@H]3[C@@H]4C[C@@H]([C@H]5O[C@@H]45)[C@@H]3[C@@]1(Cl)C2(Cl)Cl [Dieldrin]
ER [1]; ref Sonneveld et al. (2005)
  ER RBA: 0.0019 ^h %
ER [2]; ref Pillon et al. (2005)
  ER RAF: 0.00001 ^b %

## C[C@]12CCC(=O)C[C@@H]1CC[C@@H]1[C@@H]2CC[C@]2(C)[C@@H](O)CC[C@@H]12 [DHT, dihydrotestosterone]
HepG2 cells
  reduction of hormone by metabolism: 46%
AR [14]
  EC50: […]
AR [15]
  IC50: […]

## BrC[C@@H](Br)[C@H]1CC[C@@H](Br)[C@H](Br)C1 (mixture of isomers) [TBECH-β, rac-(1R,2R)-1,2-dibromo-(4S)-4-[(1S)1,2-dibromoethyl]cyclohexane]
hAR
  EC50: 294000 pM
AR-LBD
  IC50: 655000 pM
